The results in this text go back to ChEMBL document CHEMBL1149927, “Synthesis of 7-methoxy-2-(1,3-dithiolan-2-ylidene)cephem sulphones. A new series of human leukocyte elastase inhibitors” (Bioorg Med Chem Lett, 1996).

In the test the target is T1, Neutrophil elastase (Homo sapiens, UniProt P08246).
T1 sequence (P08246 whole entry): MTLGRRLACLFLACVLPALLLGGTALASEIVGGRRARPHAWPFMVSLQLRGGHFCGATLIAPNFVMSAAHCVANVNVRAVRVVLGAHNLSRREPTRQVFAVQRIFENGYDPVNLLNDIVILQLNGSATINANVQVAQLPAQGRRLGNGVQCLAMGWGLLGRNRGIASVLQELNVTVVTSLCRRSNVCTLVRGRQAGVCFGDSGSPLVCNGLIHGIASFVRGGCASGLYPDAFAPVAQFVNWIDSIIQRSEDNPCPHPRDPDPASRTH
Put plainly: Inhibitory activity against human sputum elastase (HSE).

In turn, `CO[C@H]1C(=O)N2C(C(=O)OC(C)(C)C)=C(C)CS(=O)(=O)C12` (stereo not given in full) had an IC50 of 1800 nM.

For `CO[C@H]1C(=O)N2C(C(=O)OC(C)(C)C)=C(C)C(=C3SCC(O)CS3)S(=O)(=O)C12` (stereo not given in full), the IC50 turned out to be 330 nM. This IC50 is about 5.5-fold lower than that of the compound before.

With `CO[C@H]1C(=O)N2C(C(=O)OC(C)(C)C)=C(C)C(=C3SCCS3)S(=O)(=O)C12` (stereo not given in full), half-maximal inhibition (IC50) was put at 380 nM.

On to `CO[C@H]1C(=O)N2C(C(=O)OC(C)(C)C)=C(C)C(=C3SCC(OC(C)=O)CS3)S(=O)(=O)C12` (stereo not given in full), for which 320 nM corresponded to half-maximal inhibition (IC50).

Consider `CO[C@H]1C(=O)N2C(C(=O)OC(C)(C)C)=C(C)C(=C(SC)SC)S(=O)(=O)C12` (stereo not given in full), for which the IC50 was determined as 74 nM. Against the preceding compound, the IC50 is about 4.3-fold lower.
